Legend:
HL-60(TB) = assay: Antiproliferative activity against human HL-60(TB) cells measured after 48 hrs by SRB assay; format: functional, cell-based
EKVX = assay: Antiproliferative activity against human EKVX cells measured after 48 hrs by SRB assay; format: functional, cell-based
NCI-H322M = assay: Antiproliferative activity against human NCI-H322M cells measured after 48 hrs by SRB assay; format: functional, cell-based
NCI-H460 = assay: Antiproliferative activity against human NCI-H460 cells measured after 48 hrs by SRB assay; format: functional, cell-based
COLO 205 = assay: Antiproliferative activity against human COLO 205 cells measured after 48 hrs by SRB assay; format: functional, cell-based
SF-295 = assay: Antiproliferative activity against human SF-295 cells measured after 48 hrs by SRB assay; format: functional, cell-based
SNB-19 = assay: Antiproliferative activity against human SNB-19 cells measured after 48 hrs by SRB assay; format: functional, cell-based
U-251 = assay: Antiproliferative activity against human U-251 cells measured after 48 hrs by SRB assay; format: functional, cell-based
M14 = assay: Antiproliferative activity against human M14 cells measured after 48 hrs by SRB assay; format: functional, cell-based
MDA-MB-435 = assay: Antiproliferative activity against human MDA-MB-435 cells measured after 48 hrs by SRB assay; format: functional, cell-based
SK-MEL-5 = assay: Antiproliferative activity against human SK-MEL-5 cells measured after 48 hrs by SRB assay; format: functional, cell-based
UACC-257 = assay: Antiproliferative activity against human UACC-257 cells measured after 48 hrs by SRB assay; format: functional, cell-based
IGROV-1 = assay: Antiproliferative activity against human IGROV-1 cells measured after 48 hrs by SRB assay; format: functional, cell-based
SK-OV-3 = assay: Antiproliferative activity against human SK-OV-3 cells measured after 48 hrs by SRB assay; format: functional, cell-based
786-0 = assay: Antiproliferative activity against human 786-0 cells measured after 48 hrs by SRB assay; format: functional, cell-based
CAKI-1 = assay: Antiproliferative activity against human CAKI-1 cells measured after 48 hrs by SRB assay; format: functional, cell-based
TK-10 = assay: Antiproliferative activity against human TK-10 cells measured after 48 hrs by SRB assay; format: functional, cell-based
MCF7 = assay: Antiproliferative activity against human MCF7 cells measured after 48 hrs by SRB assay; format: functional, cell-based
MDA-MB-231 = assay: Antiproliferative activity against human MDA-MB-231 cells measured after 48 hrs by SRB assay; format: functional, cell-based
Hs-578T = assay: Antiproliferative activity against human Hs-578T cells measured after 48 hrs by SRB assay; format: functional, cell-based
BT-549 = assay: Antiproliferative activity against human BT-549 cells measured after 48 hrs by SRB assay; format: functional, cell-based
T47D = assay: Antiproliferative activity against human T47D cells measured after 48 hrs by SRB assay; format: functional, cell-based
RPMI-8226 [1] = assay: Induction of apoptosis in human RPMI-8226 cells assessed as fold increase in caspase-3/7 activity at 0.87 uM; format: functional
RPMI-8226 [2] = assay: Induction of apoptosis in human RPMI-8226 cells assessed as fold increase in caspase-3/7 activity at 5.47 uM; format: functional
RPMI-8226 [3] = assay: Induction of necrosis in human RPMI-8226 cells assessed as LDH release at 0.87 uM; format: functional
RPMI-8226 [4] = assay: Induction of necrosis in human RPMI-8226 cells assessed as LDH release at 5.47 uM; format: functional
[5] = target: T1, Vascular endothelial growth factor receptor 3 (Homo sapiens, UniProt P35916); assay: Inhibition of FLT4 (unknown origin) at 1 uM relative to control
T1 sequence (P35916 whole entry): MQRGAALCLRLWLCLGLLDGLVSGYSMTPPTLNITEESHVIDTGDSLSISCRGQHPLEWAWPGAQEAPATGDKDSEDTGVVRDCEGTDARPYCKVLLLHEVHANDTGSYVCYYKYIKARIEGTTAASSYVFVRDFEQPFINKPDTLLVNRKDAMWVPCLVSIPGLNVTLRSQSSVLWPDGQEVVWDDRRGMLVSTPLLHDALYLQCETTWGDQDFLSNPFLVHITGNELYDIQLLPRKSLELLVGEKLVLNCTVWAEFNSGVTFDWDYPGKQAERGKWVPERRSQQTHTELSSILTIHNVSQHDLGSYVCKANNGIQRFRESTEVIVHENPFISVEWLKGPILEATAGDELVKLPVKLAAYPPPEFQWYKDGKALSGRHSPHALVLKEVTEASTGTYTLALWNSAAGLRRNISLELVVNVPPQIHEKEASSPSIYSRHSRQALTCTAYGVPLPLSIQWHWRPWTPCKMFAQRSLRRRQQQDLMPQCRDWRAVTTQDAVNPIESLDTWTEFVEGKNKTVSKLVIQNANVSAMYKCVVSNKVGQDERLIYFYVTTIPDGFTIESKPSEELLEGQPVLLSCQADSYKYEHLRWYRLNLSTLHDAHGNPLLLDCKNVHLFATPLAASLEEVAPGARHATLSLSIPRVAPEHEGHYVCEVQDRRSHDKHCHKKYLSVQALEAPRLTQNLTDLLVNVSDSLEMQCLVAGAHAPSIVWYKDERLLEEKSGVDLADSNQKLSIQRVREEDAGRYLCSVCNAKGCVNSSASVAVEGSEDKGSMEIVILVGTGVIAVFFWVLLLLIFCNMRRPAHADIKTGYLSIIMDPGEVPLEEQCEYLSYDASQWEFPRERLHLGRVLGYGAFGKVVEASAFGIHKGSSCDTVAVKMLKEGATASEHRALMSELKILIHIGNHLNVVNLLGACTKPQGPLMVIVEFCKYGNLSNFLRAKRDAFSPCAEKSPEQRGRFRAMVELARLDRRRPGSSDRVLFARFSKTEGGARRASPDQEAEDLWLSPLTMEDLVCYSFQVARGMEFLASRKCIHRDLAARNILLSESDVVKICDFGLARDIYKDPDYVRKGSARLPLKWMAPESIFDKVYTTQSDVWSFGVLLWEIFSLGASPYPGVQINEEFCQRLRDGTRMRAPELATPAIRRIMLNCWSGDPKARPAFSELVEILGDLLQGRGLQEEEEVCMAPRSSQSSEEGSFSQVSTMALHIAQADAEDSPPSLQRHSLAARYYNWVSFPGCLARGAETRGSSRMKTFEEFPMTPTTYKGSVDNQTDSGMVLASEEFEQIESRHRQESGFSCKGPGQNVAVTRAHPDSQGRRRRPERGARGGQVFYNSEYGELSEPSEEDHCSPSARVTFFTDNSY

[6] = target: T2, Mitogen-activated protein kinase 10 (Homo sapiens, UniProt P53779); assay: Inhibition of JNK3 (unknown origin)
T2 sequence (P53779 whole entry): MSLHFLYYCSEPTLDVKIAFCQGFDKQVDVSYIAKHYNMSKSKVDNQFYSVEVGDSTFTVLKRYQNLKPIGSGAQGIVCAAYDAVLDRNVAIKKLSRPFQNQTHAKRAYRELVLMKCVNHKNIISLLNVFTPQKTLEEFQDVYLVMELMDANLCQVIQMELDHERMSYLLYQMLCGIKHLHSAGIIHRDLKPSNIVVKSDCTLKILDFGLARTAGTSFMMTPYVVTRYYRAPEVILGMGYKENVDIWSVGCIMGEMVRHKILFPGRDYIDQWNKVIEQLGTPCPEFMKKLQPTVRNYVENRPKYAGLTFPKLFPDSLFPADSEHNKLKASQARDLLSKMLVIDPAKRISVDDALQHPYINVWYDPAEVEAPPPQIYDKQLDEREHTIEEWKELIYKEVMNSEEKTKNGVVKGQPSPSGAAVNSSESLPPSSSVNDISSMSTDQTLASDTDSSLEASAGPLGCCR

[7] = target: T1, Vascular endothelial growth factor receptor 3; assay: Inhibition of FLT4 (unknown origin)
Homo sapiens = species on record: Homo sapiens; assay: Ratio IC50 for inhibition of FLT4 (unknown origin) over IC50 for JNK3 (unknown origin)
[8] = target: Mitogen-activated protein kinase 8 (Homo sapiens, UniProt P45983); assay: Inhibition of JNK1-alpha-1 (unknown origin)
Mitogen-activated protein kinase 8, sequence (P45983 whole entry): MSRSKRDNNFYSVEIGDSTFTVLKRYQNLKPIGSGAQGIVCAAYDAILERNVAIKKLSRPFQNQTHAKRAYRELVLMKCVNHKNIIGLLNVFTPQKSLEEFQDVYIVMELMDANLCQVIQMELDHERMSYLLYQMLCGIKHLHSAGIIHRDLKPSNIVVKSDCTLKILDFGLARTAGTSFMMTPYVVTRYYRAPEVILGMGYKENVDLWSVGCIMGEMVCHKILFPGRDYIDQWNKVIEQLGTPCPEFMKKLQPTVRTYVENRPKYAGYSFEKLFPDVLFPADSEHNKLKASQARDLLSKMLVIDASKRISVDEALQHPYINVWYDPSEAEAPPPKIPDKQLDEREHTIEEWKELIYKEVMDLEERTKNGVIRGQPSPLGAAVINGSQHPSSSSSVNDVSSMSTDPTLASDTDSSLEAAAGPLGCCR

[9] = target: Mitogen-activated protein kinase 9 (Homo sapiens, UniProt P45984); assay: Inhibition of JNK2-alpha-2 (unknown origin)
Mitogen-activated protein kinase 9, sequence (P45984 whole entry): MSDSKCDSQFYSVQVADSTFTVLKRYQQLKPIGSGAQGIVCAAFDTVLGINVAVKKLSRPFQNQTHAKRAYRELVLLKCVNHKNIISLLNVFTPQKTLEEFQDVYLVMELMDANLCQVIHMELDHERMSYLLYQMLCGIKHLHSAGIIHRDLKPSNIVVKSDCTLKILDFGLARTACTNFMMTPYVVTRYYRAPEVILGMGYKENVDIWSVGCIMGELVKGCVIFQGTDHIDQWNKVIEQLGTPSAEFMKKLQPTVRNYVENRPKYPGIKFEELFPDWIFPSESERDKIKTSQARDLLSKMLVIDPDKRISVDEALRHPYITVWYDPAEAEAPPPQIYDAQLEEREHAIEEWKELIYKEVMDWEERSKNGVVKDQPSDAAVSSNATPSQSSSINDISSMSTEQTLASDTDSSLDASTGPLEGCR

[10] = system: Serine/threonine-protein kinase B-raf (Homo sapiens), P15056 [V600E]; assay: Inhibition of B-RAF V600E mutant (unknown origin) at 1 uM relative to control
Serine/threonine-protein kinase B-raf (Homo sapiens), P15056 [V600E], sequence (P15056 whole entry V600E, the tested form may be a part): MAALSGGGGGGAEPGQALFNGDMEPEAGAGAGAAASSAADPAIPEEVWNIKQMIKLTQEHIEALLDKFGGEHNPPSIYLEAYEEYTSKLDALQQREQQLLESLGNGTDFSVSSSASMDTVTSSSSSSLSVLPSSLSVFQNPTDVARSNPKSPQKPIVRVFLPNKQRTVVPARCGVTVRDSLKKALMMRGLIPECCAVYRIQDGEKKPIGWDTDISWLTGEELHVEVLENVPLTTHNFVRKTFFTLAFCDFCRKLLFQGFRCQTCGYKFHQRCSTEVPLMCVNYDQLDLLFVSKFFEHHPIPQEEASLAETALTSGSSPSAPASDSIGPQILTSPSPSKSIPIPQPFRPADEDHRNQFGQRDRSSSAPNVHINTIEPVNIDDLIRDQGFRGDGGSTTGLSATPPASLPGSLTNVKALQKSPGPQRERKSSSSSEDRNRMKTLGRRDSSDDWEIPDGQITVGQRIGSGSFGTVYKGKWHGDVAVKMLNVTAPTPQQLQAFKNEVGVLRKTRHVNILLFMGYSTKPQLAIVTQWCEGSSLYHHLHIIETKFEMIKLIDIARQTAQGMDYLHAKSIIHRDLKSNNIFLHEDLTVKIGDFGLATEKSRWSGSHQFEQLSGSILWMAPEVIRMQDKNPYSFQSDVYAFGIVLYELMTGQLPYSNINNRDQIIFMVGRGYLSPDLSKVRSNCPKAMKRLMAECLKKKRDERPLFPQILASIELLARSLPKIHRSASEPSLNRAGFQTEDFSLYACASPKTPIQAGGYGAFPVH

[11] = target: T2, Mitogen-activated protein kinase 10; assay: Inhibition of JNK3 in human HEK293 cells transfected with JNK3-NanoLuc fusion vector measured after 1 hr by NanoBRET assay; format: cell-based
Cytochrome P450 2D6 = Cytochrome P450 2D6 (Homo sapiens, UniProt P10635); assay: Inhibition of CYP2D6 (unknown origin) using EOMCC as a substrate; format: ADME
Cytochrome P450 2D6, sequence (P10635 whole entry): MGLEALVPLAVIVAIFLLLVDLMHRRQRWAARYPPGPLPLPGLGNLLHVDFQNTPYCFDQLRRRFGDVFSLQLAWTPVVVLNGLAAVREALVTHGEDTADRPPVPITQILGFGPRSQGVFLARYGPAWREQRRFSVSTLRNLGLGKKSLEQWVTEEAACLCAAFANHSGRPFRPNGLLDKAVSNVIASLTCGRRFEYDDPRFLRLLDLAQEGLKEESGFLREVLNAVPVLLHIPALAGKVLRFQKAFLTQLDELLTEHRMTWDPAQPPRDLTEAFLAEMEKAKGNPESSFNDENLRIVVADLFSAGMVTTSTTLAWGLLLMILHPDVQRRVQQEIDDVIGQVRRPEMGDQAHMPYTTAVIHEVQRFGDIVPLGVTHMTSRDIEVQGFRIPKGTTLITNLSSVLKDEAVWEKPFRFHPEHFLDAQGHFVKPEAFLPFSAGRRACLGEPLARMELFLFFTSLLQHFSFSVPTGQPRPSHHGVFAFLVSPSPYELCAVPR

Cytochrome P450 3A4 = Cytochrome P450 3A4 (Homo sapiens, UniProt P08684); assay: Inhibition of CYP3A4 (unknown origin) using BOMCC as a substrate; format: ADME
Cytochrome P450 3A4, sequence (P08684 whole entry): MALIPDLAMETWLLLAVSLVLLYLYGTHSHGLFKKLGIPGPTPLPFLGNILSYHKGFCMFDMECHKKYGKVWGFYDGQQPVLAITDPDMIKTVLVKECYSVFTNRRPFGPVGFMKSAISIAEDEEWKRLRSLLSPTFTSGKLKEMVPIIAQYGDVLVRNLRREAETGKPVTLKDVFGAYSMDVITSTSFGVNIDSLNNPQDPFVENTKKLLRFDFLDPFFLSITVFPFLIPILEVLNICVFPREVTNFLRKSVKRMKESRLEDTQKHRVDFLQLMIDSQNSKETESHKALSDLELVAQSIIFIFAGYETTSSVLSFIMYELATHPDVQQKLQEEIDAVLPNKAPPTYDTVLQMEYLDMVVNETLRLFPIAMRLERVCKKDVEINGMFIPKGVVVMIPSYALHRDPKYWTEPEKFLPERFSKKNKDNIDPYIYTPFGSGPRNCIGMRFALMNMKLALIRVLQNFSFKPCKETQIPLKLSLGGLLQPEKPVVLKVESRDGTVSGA

[12] = target: Voltage-gated inwardly rectifying potassium channel KCNH2 (Homo sapiens, UniProt Q12809); assay: Inhibition of hERG measured by fluorescence polarization assay

Compound: O=C(NCCCNc1cc(-c2cn(-c3ccccc3)nc2-c2cccc(O)c2)ccn1)Nc1ccc(F)cc1
- IC50 (HL-60(TB); HL-60, 48 h): 2.15 µM
- TGI (HL-60(TB); HL-60, time 48 hrs): 14.2 µM
- IC50 (EKVX; 48 h): 2.74 µM
- TGI (EKVX; time 48 hrs): 9.51 µM
- IC50 (NCI-H322M; 48 h): 3.7 µM
- TGI (NCI-H322M; time 48 hrs): 12.4 µM
- IC50 (NCI-H460; NCI-H460, 48 h): 2.35 µM
- TGI (NCI-H460; NCI-H460, time 48 hrs): 5.88 µM
- IC50 (COLO 205; COLO 205, 48 h): 2.34 µM
- TGI (COLO 205; COLO 205, time 48 hrs): 6.28 µM
- IC50 (SF-295; SF-295, 48 h): 1.38 µM
- TGI (SF-295; SF-295, time 48 hrs): 4.84 µM
- IC50 (SNB-19; SNB-19, 48 h): 3.29 µM
- TGI (SNB-19; SNB-19, time 48 hrs): 9.75 µM
- IC50 (U-251; U-251, 48 h): 2.05 µM
- TGI (U-251; U-251, time 48 hrs): 7.55 µM
- IC50 (M14; M14, 48 h): 1.57 µM
- TGI (M14; M14, time 48 hrs): 5.85 µM
- IC50 (MDA-MB-435; MDA-MB-435, 48 h): 1.66 µM
- TGI (MDA-MB-435; MDA-MB-435, time 48 hrs): 5.05 µM
- IC50 (SK-MEL-5; SK-MEL-5, 48 h): 1.64 µM
- TGI (SK-MEL-5; SK-MEL-5, time 48 hrs): 4.83 µM
- IC50 (UACC-257; UACC-257, 48 h): 3.07 µM
- TGI (UACC-257; UACC-257, time 48 hrs): 7.54 µM
- IC50 (IGROV-1; IGROV-1, 48 h): 1.23 µM
- TGI (IGROV-1; IGROV-1, time 48 hrs): 5.82 µM
- IC50 (SK-OV-3; SK-OV-3, 48 h): 3.12 µM
- TGI (SK-OV-3; SK-OV-3, time 48 hrs): 10.8 µM
- IC50 (786-0; 786-0, 48 h): 0.86 µM
- TGI (786-0; 786-0, time 48 hrs): 3.61 µM
- IC50 (CAKI-1; CAKI-1, 48 h): 2.04 µM
- TGI (CAKI-1; CAKI-1, time 48 hrs): 10.7 µM
- IC50 (TK-10; TK-10, 48 h): 6.78 µM
- TGI (TK-10; TK-10, time 48 hrs): 20.3 µM
- IC50 (MCF7; MCF7, 48 h): 2.32 µM
- TGI (MCF7; MCF7, time 48 hrs): 6.04 µM
- IC50 (MDA-MB-231; MDA-MB-231, 48 h): 2.18 µM
- TGI (MDA-MB-231; MDA-MB-231, time 48 hrs): 7.78 µM
- IC50 (Hs-578T; 48 h): 0.98 µM
- TGI (Hs-578T; time 48 hrs): 5.31 µM
- IC50 (BT-549; BT-549, 48 h): 2.18 µM
- TGI (BT-549; BT-549, time 48 hrs): 11.6 µM
- IC50 (T47D; 48 h): 1.89 µM
- TGI (T47D; time 48 hrs): 11 µM
- fold change (FC) (RPMI-8226 [1]): 1.84
- fold change (FC) (RPMI-8226 [2]): 2.75
- Activity (RPMI-8226 [3]): 8.5%
- Activity (RPMI-8226 [4]): 32.4%
- inhibition [5]: 84%
- IC50 [6]: 0.0974 µM
- IC50 [7]: 0.791 µM
- Ratio IC50 (Homo sapiens): 8.2
- IC50 [8]: 1 µM
- IC50 [9]: 1 µM
- inhibition [10]: 4%
- IC50 [11]: 3.84 µM
- IC50 (Cytochrome P450 2D6): 5.54 µM
- IC50 (Cytochrome P450 3A4): 18.7 µM
- IC50 [12]: > 50 µM
